Assay results taken from patent US20260234135A1, “CRYSTALLINE FORMS OR SALTS OF A DEUTERATED COMPOUND” (ALEBUND PHARMACEUTICALS (HONG KONG) LIMITED, priority 2023, published 2026).
Like-named read-outs stand apart in the source and are kept apart here.

Columns and labels:
[1] = for Form or purity change after storage: 60° C./close and 40° C./75% RH/open for 2/4/8 weeks
[2] = Hygroscopicity evaluation by DVS at 25° C.; type: physicochemical
Procedure: DVS was measured via a SMS (Surface Measurement Systems) DVS Intrinsic. The relative humidity at 25° C. were calibrated against deliquescence point of LiCl, Mg(NO3)2 and KCl.

SMILES: N=C(N)NCCCC(N)C(=O)O.[2H]C([2H])(Cc1nc(-c2ccccc2)oc1C)Oc1ccc(C[C@H](OC)C(=O)O)c2sccc12 [arginine salt Form A]
- Area (%) of impurity peak RRT 0.88 ([1]; 40° C./75% RH, 2 weeks): 0.14%
- Area (%) of impurity peak RRT 1.14 ([1]; 40° C./75% RH, 2 weeks): 0.06%
- Area (%) of impurity peak RRT 1.34 ([1]; 40° C./75% RH, 2 weeks): 0.22%
- Area (%) of impurity peak RRT 0.88 ([1]; 40° C./75% RH, 4 weeks): 0.11%
- Area (%) of impurity peak RRT 1.34 ([1]; 40° C./75% RH, 4 weeks): 0.19%
- Area (%) of impurity peak RRT 0.88 ([1]; 40° C./75% RH, 8 weeks): 0.07%
- Area (%) of impurity peak RRT 1.34 ([1]; 40° C./75% RH, 8 weeks): 0.19%
- HPLC Purity (area %), main peak RRT 1.00 ([1]; 40° C./75% RH/open, 2 weeks): 99.59 area %
- HPLC Reults of initial (%) ([1]; 40° C./75% RH/open, 2 weeks): 99.87%
- HPLC Purity (area %), main peak RRT 1.00 ([1]; 40° C./75% RH/open, 4 weeks): 99.70 area %
- HPLC Reults of initial (%) ([1]; 40° C./75% RH/open, 4 weeks): 99.98%
- HPLC Purity (area %), main peak RRT 1.00 ([1]; 40° C./75% RH/open, 8 weeks): 99.74 area %
- HPLC Reults of initial (%) ([1]; 40° C./75% RH/open, 8 weeks): 100.02%
- Area (%) of impurity peak RRT 0.88 ([1]; 60° C., 2 weeks): 0.06%
- Area (%) of impurity peak RRT 1.34 ([1]; 60° C., 2 weeks): 0.18%
- Area (%) of impurity peak RRT 0.88 ([1]; 60° C., 4 weeks): 0.09%
- Area (%) of impurity peak RRT 1.34 ([1]; 60° C., 4 weeks): 0.18%
- Area (%) of impurity peak RRT 0.81 ([1]; 60° C., 8 weeks): 0.05%
- Area (%) of impurity peak RRT 0.88 ([1]; 60° C., 8 weeks): 0.06%
- Area (%) of impurity peak RRT 1.34 ([1]; 60° C., 8 weeks): 0.18%
- Form or purity change after storage [1]: No form or purity decrease
- HPLC Purity (area %), main peak RRT 1.00 ([1]; 60° C./close, 2 weeks): 99.76 area %
- HPLC Reults of initial (%) ([1]; 60° C./close, 2 weeks): 100.04%
- HPLC Purity (area %), main peak RRT 1.00 ([1]; 60° C./close, 4 weeks): 99.73 area %
- HPLC Reults of initial (%) ([1]; 60° C./close, 4 weeks): 100.01%
- HPLC Purity (area %), main peak RRT 1.00 ([1]; 60° C./close, 8 weeks): 99.71 area %
- HPLC Reults of initial (%) ([1]; 60° C./close, 8 weeks): 99.99%
- Area (%) of impurity peak RRT 0.88 ([1]; Initial): 0.07%
- Area (%) of impurity peak RRT 1.34 ([1]; Initial): 0.20%
- HPLC Purity (area %), main peak RRT 1.00 ([1]; Initial): 99.72 area %
- Hygroscopicity ([2]; DVS, 25° C.): slightly hygroscopicity
- Water uptake up to 80% RH ([2]; DVS, 25° C.): 0.5%
- Form change after DVS test ([2]; XRPD after DVS): No form change

SMILES: [2H]C([2H])(Cc1nc(-c2ccccc2)oc1C)Oc1ccc(C[C@H](OC)C(=O)O)c2sccc12 [free acid Form E]
- Area (%) of impurity peak RRT 0.88 ([1]; 40° C./75% RH, 2 weeks): 0.33%
- Area (%) of impurity peak RRT 1.14 ([1]; 40° C./75% RH, 2 weeks): 0.15%
- Area (%) of impurity peak RRT 1.28 ([1]; 40° C./75% RH, 2 weeks): 0.18%
- Area (%) of impurity peak RRT 1.33 ([1]; 40° C./75% RH, 2 weeks): 0.25%
- Area (%) of impurity peak RRT 0.88 ([1]; 40° C./75% RH, 4 weeks): 0.35%
- Area (%) of impurity peak RRT 1.14 ([1]; 40° C./75% RH, 4 weeks): 0.15%
- Area (%) of impurity peak RRT 1.28 ([1]; 40° C./75% RH, 4 weeks): 0.23%
- Area (%) of impurity peak RRT 1.33 ([1]; 40° C./75% RH, 4 weeks): 0.27%
- Area (%) of impurity peak RRT 0.88 ([1]; 40° C./75% RH, 8 weeks): 0.32%
- Area (%) of impurity peak RRT 1.14 ([1]; 40° C./75% RH, 8 weeks): 0.13%
- Area (%) of impurity peak RRT 1.28 ([1]; 40° C./75% RH, 8 weeks): 0.20%
- Area (%) of impurity peak RRT 1.33 ([1]; 40° C./75% RH, 8 weeks): 0.27%
- HPLC Purity (area %), main peak RRT 1.00 ([1]; 40° C./75% RH/open, 2 weeks): 99.08 area %
- HPLC Reults of initial (%) ([1]; 40° C./75% RH/open, 2 weeks): 100.07%
- HPLC Purity (area %), main peak RRT 1.00 ([1]; 40° C./75% RH/open, 4 weeks): 99.00 area %
- HPLC Reults of initial (%) ([1]; 40° C./75% RH/open, 4 weeks): 99.99%
- HPLC Purity (area %), main peak RRT 1.00 ([1]; 40° C./75% RH/open, 8 weeks): 99.03 area %
- HPLC Reults of initial (%) ([1]; 40° C./75% RH/open, 8 weeks): 100.02%
- Area (%) of impurity peak RRT 0.88 ([1]; 60° C., 2 weeks): 0.32%
- Area (%) of impurity peak RRT 1.14 ([1]; 60° C., 2 weeks): 0.16%
- Area (%) of impurity peak RRT 1.28 ([1]; 60° C., 2 weeks): 0.23%
- Area (%) of impurity peak RRT 1.33 ([1]; 60° C., 2 weeks): 0.25%
- Area (%) of impurity peak RRT 0.88 ([1]; 60° C., 4 weeks): 0.38%
- Area (%) of impurity peak RRT 1.14 ([1]; 60° C., 4 weeks): 0.17%
- Area (%) of impurity peak RRT 1.28 ([1]; 60° C., 4 weeks): 0.26%
- Area (%) of impurity peak RRT 1.33 ([1]; 60° C., 4 weeks): 0.29%
- Area (%) of impurity peak RRT 0.88 ([1]; 60° C., 8 weeks): 0.34%
- Area (%) of impurity peak RRT 1.14 ([1]; 60° C., 8 weeks): 0.14%
- Area (%) of impurity peak RRT 1.28 ([1]; 60° C., 8 weeks): 0.23%
- Area (%) of impurity peak RRT 1.33 ([1]; 60° C., 8 weeks): 0.27%
- Form or purity change after storage [1]: No form or purity decrease
- HPLC Purity (area %), main peak RRT 1.00 ([1]; 60° C./close, 2 weeks): 99.04 area %
- HPLC Reults of initial (%) ([1]; 60° C./close, 2 weeks): 100.03%
- HPLC Purity (area %), main peak RRT 1.00 ([1]; 60° C./close, 4 weeks): 98.89 area %
- HPLC Reults of initial (%) ([1]; 60° C./close, 4 weeks): 99.88%
- HPLC Purity (area %), main peak RRT 1.00 ([1]; 60° C./close, 8 weeks): 98.96 area %
- HPLC Reults of initial (%) ([1]; 60° C./close, 8 weeks): 99.95%
- Area (%) of impurity peak RRT 0.88 ([1]; Initial): 0.31%
- Area (%) of impurity peak RRT 1.14 ([1]; Initial): 0.16%
- Area (%) of impurity peak RRT 1.28 ([1]; Initial): 0.26%
- Area (%) of impurity peak RRT 1.33 ([1]; Initial): 0.25%
- HPLC Purity (area %), main peak RRT 1.00 ([1]; Initial): 99.01 area %
